Results taken from ChEMBL document CHEMBL2163255, “Zwitterions can be predominant in membrane penetration of drugs: experimental proof” (J Med Chem, 2012).

Experiments:
Assay type in all cases: physicochemical
[1] = Octanol-water partition coefficient, log P of noncharged form of compound at 0.15 M ionic strength by stir flask method
[2] = Octanol-water distribution coefficient, log D of the compound at pH 13.18 by stir flask method
[3] = Octanol-water distribution coefficient, log D of the compound at pH 0.82 by stir flask method
[4] = Octanol-water distribution coefficient, log D of the compound at pH 4.96 by stir flask method
[5] = Octanol-water partition coefficient, log P of zwitter ionic form of compound at 0.15 M ionic strength by stir flask method
[6] = Octanol-water distribution coefficient, log D of the compound at pH 5.4 by stir flask method

logP [1]	logD [2]	logD [3]	logD [4]	logP [5]	logD [6]	SMILES
3.98	0.21	0.13	-0.14	-0.22		CC[C@@]12C=C(C(=O)O)n3c4c(c5ccccc53)CCN(CCC1)[C@@H]42
3.46	-0.07	-0.05		-1.03	-0.97	CC[C@@]12C=C(C(=O)O)n3c4c(c5ccccc53)CCN(CCC1)[C@H]42
4.75		0.9				CCOC(=O)C1=C[C@]2(CC)CCCN3CCc4c(n1c1ccccc41)[C@H]32
4.45		0.94				CCOC(=O)C1=C[C@]2(CC)CCCN3CCc4c(n1c1ccccc41)[C@@H]32 [VINPOCETINE]
